Assay results: patent US11596632B2, “JAK1 pathway inhibitors for the treatment of gastrointestinal disease” (Incyte Corporation, priority 2018, dated 2023)
Read-outs that look alike come from different tables or passages of the source.

Experiments:
Type in all cases: in vivo, human
[1] = Fecal concentration and excretion after oral sustained release dose
Description: The method used for analyzing Compound 1 in human feces is a qualified method. The human fecal samples are collected in 1:1 homogenate at the clinical site [1 part of water (mL): 1 part of faces(g)]. Prior to sample analysis, additional water is added to the sample homogenate to achieve the final ratio of feces to water at 1:19 as calibration standard and QC samples. The final homogenates are processed and analyzed with calibration standards and QC samples. For human homogenate analysis, briefly, 100 μL of the feces homogenate (blanks, QC and study samples) is placed in a test tube. After an aliquot of 20 μL of internal standard is added and mixed, an aliquot of 200 μL of 0.1 M NaHCO3 is added and vortexed. Then 2 mL of MtBE is added and the samples are vortexed. After centrifugation, MtBE layer is transferred to a clean test tube. The samples were then dried under nitrogen at approximately 40° C. An aliquot of 1 mL of reconstitution solution (acetonitrile:water, 50:50, v/v) is then added to each sample and vortexed. Then 10 μL of the sample was diluted with 3 mL reconstitution solution in a clean test tube. The sample is transferred to an autosampler vial and 10 μL is injected into an LC-MS/MS for analysis. The LC-MS/MS analysis is carried out with an AB Sciex API 4000 or API 4000 QTrap mass spectrometer coupled with an HPLC pump and an autosampler. The chromatographic separation is achieved on a Agilent Eclipse Plus C8 50×4.6 mm, 5 μm HPLC column, with gradient elution. The mass spectrometer is operated in positive ESI mode. MRM transition is m/z 554.3→186.2 for Compound 1 and m/z 558.4→190.2 for the internal standard. Peak-area integrations are performed using the Analyst software and concentrations are calculated in Watson LIMS. Concentrations of human feces homogenates are calculated using 8 concentration levels ranging from 1 μg/g to 300 μg/g (1.8 μM to 542 μM) with weighted linear regression, according to the following formula: y=ax+b(weighting factor=1/x^2)
where x=Compound 1 concentration in μg/g in human feces homogenates, y=Peak-area ratio, a=Slope, and b=Intercept.
(§1) Methods: Compound 1 concentrations in plasma and feces (colonic surrogate) were determined following a single sustained release 25 mg oral dose (see, e.g., Example B, 25 mg SR composition). Compound 1 concentrations in plasma following a single 100 mg dose were also determined in a separate study (see, e.g., Example C for measuring concentrations of Compound 1 in plasma). Ex vivo study: Colon tissue samples from healthy and UC subjects (2/group) were mounted on a vertical Ussing diffusion chamber. [^14C]Compound 1 was applied to the apical side of the chamber at 100 and 1000 nM and incubated for 1 h. Samples were collected from the donor and receiver sides for determination of Compound 1 concentration. The colonic tissue was snap frozen for quantitative autoradiography.

[2] = Plasma pharmacokinetics after single oral sustained release dose
Description: The method used for analyzing Compound 1 in human plasma has been validated. Briefly, 50 μL of human plasma sample is placed in a 96-well plate. After an aliquot of 50 μL of internal standard (dissolved in 50:50 acetonitrile:water) is added, an aliquot of 100 μL of 0.1 M NaHCO3 is added. Then 800 μL of methyl-t-butyl ether (MtBE) is added and the samples are covered and vortexed. After centrifugation, 700 μL of MtBE layer is transferred to a clean 96-well plate. The samples are then dried under nitrogen at approximately 50° C. An aliquot of 250 μL of reconstitution solution (acetonitrile:water, 50:50, v/v) is then added to each sample. The plate is placed in the autosampler tray and injected into an LC-MS/MS for analysis. The LC-MS/MS analysis is carried out with an AB Sciex 4000 or a Sciex 6500 QTRAP mass spectrometer coupled with an HPLC pump and an autosampler. The chromatographic separation is achieved on a Waters T3 (50 mm×2.1 mm) HPLC column, with isocratic elution. The mass spectrometer is operated in positive ESI mode. The multiple reaction monitoring (MRM) transition is m/z 554.1→186.0 for Compound 1 and m/z 558.1→190.0 for the internal standard. Peak-area integrations are performed using the Analyst software and concentrations are calculated in Watson LIMS. Concentrations are calculated using 10 concentration levels ranging from 5 nM to 5000 nM with weighted linear regression, according to the following formula: y=ax+b(weighting factor=1/x^2) • where: x=Compound 1 concentration in nM; y=Peak-area ratio; a=Slope; and b=Intercept.
The lower limit of quantitation is 5 nM and the calibration curve ranges from 5 nM to 5000 nM for Compound 1 in human plasma.
as §1
Standard noncompartmental pharmacokinetic methods were used to analyze Compound 1 plasma concentrations. The Cmax (maximum plasma concentration) and Tmax (time at which the maximum plasma concentration occurs) were taken directly from the observed plasma concentration data. The terminal-phase disposition rate constant (λZ) was estimated using a log-linear regression of the concentration data in the terminal disposition phase, and t1/2 was estimated as ln(2)/λZ. AUCall is defined as the area under the plasma concentration-time curve from time 0 to the last observation calculated using the linear trapezoidal rule for increasing concentrations and logarithmic trapezoidal rule for decreasing concentrations. AUC0-inf was calculated as AUC0-t+Ct/λZ, where by AUC0-t is defined as the area under the plasma concentration-time curve from time 0 to the last measureable concentration (also calculated using the linear-up/log-down trapezoidal rule) and Ct is the last measurable concentration. Cl/F is the apparent clearance and is calculated as Dose/AUC0-inf. Vz/F is the apparent volume of distribution based on the terminal phase calculated as Dose/(λZ*AUC0-inf).

RA patients = assay: Clinical study in rheumatoid arthritis patients (ACR responses, ANC)
Description: However, the greatest inhibition appeared to be observed following 200 mg BID dosing. Also noteworthy is that the 100 mg QD dose had less TPO induced pSTAT3 inhibition than placebo.

[3] = single 25 mg SR oral dose, N=12

Q: Which “administered dose excreted intact as parent compound in the feces” value ([1]; humans, oral) does the source give for N#CCC1(n2cc(-c3ncnc4[nH]ccc34)cn2)CN(C2CCN(C(=O)c3ccnc(C(F)(F)F)c3F)CC2)C1 [Compound 1, {1-{1-[3-Fluoro-2-(trifluoromethyl)isonicotinoyl]piperidin-4-yl}-3-[4-(7H-pyrrolo[2,3-d]pyrimidin-4-yl)-1H-pyrazol-1-yl]azetidin-3-yl}acetonitrile] here?
A: ~30%

Q: And the “Maximal fecal concentration, geometric mean” value ([1]; single 25 mg SR dose, feces 0-24 hours)?
A: 85.5 nM

Q: What about the “Maximal fecal concentration, Mean” value ([1]; single 25 mg SR dose, feces 0-24 hours, SD 41.4 nM) of the same compound?
A: 93.4 nM

Q: And the “patients with maximum fecal concentrations exceeding the in vitro IC50 for JAK1 inhibition (58 nM)” value ([1]; single 25 mg dose)?
A: eight of twelve

Q: And the “dose eliminated as unchanged Compound 1 in the feces” value ([1]; sustained release formulation)?
A: 27.1%

Q: What about the Cmax ([2]; human, plasma, 100 mg, plasma, single 100 mg dose, separate study, read-out: Cmax, mean (SD)) of the same compound?
A: 84.4 nM

Q: And the AUC(0-inf) ([2]; human, plasma, po, 25 mg, plasma, single 25 mg SR oral dose, N=12, read-out: AUC0-inf, Geometric Mean)?
A: 0.111 µM·h

Q: What about the AUC(0-inf) ([2]; human, plasma, po, 25 mg, plasma, single 25 mg SR oral dose, N=12, read-out: AUC0-inf, Mean) of the same compound?
A: 0.117 µM·h

Q: And the AUC ([2]; human, plasma, po, 25 mg, plasma, single 25 mg SR oral dose, N=12, read-out: AUCall, Geometric Mean)?
A: 0.105 µM·h

Q: And the AUC ([2]; human, plasma, po, 25 mg, plasma, single 25 mg SR oral dose, N=12, read-out: AUCall, Mean)?
A: 0.11 µM·h

Q: What about the Cmax ([2]; human, plasma, po, 25 mg, plasma, single 25 mg SR oral dose, N=12, read-out: Cmax, Geometric Mean) of the same compound?
A: 17.2 nM

Q: What about the Cmax ([2]; human, plasma, po, 25 mg, plasma, single 25 mg SR oral dose, N=12, read-out: Cmax, Mean) of the same compound?
A: 18.9 nM

Q: And the half-life ([2]; human, plasma, po, 25 mg, single 25 mg SR oral dose, N=12, read-out: Half-life or t1/2, Geometric Mean (converted))?
A: 9.04 h

Q: What about the half-life ([2]; human, plasma, po, 25 mg, single 25 mg SR oral dose, N=12, read-out: Half-life or t1/2, Mean (converted)) of the same compound?
A: 12.3 h

Q: And the Vd/F ([2]; human, plasma, po, 25 mg, single 25 mg SR oral dose, N=12, read-out: Vz/F, Geometric Mean)?
A: 5290 L

Q: And the Vd/F ([2]; human, plasma, po, 25 mg, single 25 mg SR oral dose, N=12, read-out: Vz/F, Mean)?
A: 7360 L

Q: And the Tmax ([2]; human, plasma, single 25 mg SR oral dose, N=12 (min 1, max 4), read-out: Tmax, median)?
A: 2 h

Q: What about the “dose proportionality of PK” value ([2]; humans) of the same compound?
A: supralinear PK with regard to dose

Q: What about the “oral bioavailability in humans” value ([2]; in vivo, po) of the same compound?
A: moderate

Q: What about the “Cl/F, Geometric Mean” value [2, 3] of the same compound?
A: 405 L/h

Q: What about the “Cl/F, Mean” value [2, 3] of the same compound?
A: 424 L/h

Q: What about the “ACR20, ACR50, and ACR70 responses versus placebo” value (RA patients; 600 mg QD, Day 84 visit) of the same compound?
A: statistically significant differences in ACR20, ACR50, and ACR70 responses

Q: And the “decreased ANC” value (RA patients; RA patients)?
A: several cases of decreased ANC but no dose-dependent trend was observed
